Reference: ChEMBL document CHEMBL1144455, “A small molecule-kinase interaction map for clinical kinase inhibitors” (Nat Biotechnol, 2005)

Key:
[1] = target: Mitogen-activated protein kinase kinase kinase 4 (Homo sapiens, UniProt Q9Y6R4)
[2] = target: T1, Serine/threonine-protein kinase 3 (Mus musculus, UniProt Q9JI10)
T1 sequence (Q9JI10 whole entry): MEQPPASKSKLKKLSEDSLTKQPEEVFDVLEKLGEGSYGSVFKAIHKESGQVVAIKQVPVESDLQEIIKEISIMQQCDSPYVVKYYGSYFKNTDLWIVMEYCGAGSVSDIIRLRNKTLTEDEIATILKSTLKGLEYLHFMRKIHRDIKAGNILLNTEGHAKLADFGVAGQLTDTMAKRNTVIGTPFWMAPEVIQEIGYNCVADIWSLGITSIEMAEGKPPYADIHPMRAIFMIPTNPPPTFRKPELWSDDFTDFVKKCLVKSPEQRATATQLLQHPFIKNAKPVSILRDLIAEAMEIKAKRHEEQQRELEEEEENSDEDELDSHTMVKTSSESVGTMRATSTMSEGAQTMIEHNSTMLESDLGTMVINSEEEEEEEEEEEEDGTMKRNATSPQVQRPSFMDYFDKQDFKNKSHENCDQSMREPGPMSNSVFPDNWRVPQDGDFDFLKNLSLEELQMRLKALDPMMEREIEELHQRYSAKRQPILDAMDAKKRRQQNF

[3] = target: T2, Serine/threonine-protein kinase 4 (Homo sapiens, UniProt Q13043)
T2 sequence (Q13043 whole entry): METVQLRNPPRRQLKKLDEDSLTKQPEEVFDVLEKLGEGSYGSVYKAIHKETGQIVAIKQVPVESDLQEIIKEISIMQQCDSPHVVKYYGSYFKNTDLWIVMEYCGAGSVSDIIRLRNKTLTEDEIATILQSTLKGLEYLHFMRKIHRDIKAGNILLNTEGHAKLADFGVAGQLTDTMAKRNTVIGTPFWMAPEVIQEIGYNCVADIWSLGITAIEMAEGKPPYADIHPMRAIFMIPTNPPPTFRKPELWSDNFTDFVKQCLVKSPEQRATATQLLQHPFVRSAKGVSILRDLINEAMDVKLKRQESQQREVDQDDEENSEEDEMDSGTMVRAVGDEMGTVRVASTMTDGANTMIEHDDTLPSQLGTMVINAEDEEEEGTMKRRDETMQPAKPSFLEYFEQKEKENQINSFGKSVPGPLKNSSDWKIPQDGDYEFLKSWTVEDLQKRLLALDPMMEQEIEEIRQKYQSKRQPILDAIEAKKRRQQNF

Ephrin type-A receptor 8 = target: T3, Ephrin type-A receptor 8 (Homo sapiens, UniProt P29322)
T3 sequence (P29322 whole entry): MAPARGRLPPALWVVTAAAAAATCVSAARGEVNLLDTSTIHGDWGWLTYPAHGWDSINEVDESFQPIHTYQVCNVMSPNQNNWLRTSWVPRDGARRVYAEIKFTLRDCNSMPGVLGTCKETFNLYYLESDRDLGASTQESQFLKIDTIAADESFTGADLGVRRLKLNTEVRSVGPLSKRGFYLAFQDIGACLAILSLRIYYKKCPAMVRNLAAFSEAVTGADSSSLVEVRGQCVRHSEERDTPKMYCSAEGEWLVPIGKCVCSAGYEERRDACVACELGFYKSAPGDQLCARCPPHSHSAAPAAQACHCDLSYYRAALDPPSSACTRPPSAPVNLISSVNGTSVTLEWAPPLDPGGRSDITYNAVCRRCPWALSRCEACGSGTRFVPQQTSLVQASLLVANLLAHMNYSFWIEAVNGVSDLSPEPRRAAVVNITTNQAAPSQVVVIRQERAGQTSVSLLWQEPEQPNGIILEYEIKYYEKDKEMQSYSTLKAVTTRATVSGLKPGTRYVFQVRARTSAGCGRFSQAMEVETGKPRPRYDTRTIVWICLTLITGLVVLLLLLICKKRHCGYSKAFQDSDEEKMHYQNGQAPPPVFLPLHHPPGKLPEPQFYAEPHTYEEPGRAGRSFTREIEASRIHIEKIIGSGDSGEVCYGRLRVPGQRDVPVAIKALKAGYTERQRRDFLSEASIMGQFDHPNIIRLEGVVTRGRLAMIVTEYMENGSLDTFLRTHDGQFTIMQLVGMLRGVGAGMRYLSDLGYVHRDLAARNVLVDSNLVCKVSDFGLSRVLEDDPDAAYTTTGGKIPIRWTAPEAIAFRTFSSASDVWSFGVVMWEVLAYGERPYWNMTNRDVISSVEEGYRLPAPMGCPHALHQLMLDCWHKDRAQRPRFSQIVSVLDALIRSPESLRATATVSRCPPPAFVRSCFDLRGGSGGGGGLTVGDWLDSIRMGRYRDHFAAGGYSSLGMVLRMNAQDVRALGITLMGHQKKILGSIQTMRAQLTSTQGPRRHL

[4] = target: Ribosomal protein S6 kinase alpha-3 (Homo sapiens, UniProt P51812)
[5] = target: High affinity nerve growth factor receptor (Homo sapiens, UniProt P04629)
[6] = target: Tyrosine-protein kinase Lyn (Homo sapiens, UniProt P07948)
[7] = target: Calcium/calmodulin-dependent protein kinase type II subunit delta (Homo sapiens, UniProt Q13557)
[8] = target: Calcium/calmodulin-dependent protein kinase type 1 (Homo sapiens, UniProt Q14012)
[9] = target: Tyrosine-protein kinase CSK (Homo sapiens, UniProt P41240)
[10] = target: Serine/threonine-protein kinase pim-1 (Homo sapiens, UniProt P11309)
[11] = target: Serine/threonine-protein kinase PAK 1 (Homo sapiens, UniProt Q13153)
[12] = target: BMP-2-inducible protein kinase (Homo sapiens, UniProt Q9NSY1)

Measured: Kd

Mitogen-activated protein kinase kinase kinase 4, sequence (Q9Y6R4 whole entry): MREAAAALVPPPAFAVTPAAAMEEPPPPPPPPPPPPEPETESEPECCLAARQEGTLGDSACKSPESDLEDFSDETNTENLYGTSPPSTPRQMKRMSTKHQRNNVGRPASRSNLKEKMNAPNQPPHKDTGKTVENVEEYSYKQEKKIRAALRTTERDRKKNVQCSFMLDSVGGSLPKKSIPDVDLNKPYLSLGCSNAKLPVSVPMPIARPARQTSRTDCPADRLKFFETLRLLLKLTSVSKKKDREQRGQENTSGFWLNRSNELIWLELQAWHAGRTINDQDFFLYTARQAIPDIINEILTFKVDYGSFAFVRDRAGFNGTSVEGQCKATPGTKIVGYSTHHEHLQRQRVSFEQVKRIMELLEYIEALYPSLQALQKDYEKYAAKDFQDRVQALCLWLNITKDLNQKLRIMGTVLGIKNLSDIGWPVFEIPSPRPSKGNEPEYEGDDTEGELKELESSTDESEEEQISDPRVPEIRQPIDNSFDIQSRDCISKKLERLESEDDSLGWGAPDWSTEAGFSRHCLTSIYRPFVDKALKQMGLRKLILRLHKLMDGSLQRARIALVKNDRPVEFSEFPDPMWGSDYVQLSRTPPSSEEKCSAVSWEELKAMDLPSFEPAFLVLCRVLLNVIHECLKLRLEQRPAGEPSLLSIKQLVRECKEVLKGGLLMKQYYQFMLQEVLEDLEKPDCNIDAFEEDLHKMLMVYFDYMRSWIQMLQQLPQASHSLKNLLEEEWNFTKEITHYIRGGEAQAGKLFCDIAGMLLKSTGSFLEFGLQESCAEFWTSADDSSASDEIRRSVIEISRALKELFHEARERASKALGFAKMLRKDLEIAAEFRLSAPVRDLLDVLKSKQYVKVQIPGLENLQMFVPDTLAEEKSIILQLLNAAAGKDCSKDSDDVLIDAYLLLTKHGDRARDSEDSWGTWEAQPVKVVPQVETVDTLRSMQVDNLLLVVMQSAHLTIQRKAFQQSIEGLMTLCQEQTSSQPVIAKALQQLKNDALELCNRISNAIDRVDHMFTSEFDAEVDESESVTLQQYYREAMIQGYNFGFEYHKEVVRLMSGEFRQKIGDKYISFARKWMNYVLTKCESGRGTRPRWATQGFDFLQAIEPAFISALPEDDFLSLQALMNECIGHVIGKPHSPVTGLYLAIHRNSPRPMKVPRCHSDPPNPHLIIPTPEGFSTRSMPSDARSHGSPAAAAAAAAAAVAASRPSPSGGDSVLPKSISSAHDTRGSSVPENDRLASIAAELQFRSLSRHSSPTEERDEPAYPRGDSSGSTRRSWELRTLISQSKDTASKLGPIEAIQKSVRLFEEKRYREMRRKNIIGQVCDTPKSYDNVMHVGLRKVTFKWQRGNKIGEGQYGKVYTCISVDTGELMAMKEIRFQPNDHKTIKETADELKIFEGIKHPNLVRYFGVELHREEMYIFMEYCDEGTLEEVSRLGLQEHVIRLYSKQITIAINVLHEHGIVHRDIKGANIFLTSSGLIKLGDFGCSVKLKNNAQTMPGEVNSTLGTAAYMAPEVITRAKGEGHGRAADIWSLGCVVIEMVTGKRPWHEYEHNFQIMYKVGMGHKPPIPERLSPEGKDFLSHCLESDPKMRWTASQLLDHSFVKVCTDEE
Calcium/calmodulin-dependent protein kinase type II subunit delta, sequence (Q13557 whole entry): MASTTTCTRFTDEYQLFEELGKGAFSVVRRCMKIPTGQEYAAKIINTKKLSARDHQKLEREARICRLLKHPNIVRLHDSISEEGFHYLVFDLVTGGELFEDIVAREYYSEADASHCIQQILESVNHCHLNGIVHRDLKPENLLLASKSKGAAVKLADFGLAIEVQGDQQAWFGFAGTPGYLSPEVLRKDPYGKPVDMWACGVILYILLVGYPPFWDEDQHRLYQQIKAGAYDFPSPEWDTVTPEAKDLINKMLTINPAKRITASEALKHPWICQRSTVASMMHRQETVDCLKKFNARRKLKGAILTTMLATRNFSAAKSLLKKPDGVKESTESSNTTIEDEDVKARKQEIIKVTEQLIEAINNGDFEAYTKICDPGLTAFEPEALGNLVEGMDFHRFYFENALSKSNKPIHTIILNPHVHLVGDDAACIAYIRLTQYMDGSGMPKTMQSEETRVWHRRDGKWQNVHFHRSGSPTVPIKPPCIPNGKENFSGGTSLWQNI
Serine/threonine-protein kinase PAK 1, sequence (Q13153 whole entry): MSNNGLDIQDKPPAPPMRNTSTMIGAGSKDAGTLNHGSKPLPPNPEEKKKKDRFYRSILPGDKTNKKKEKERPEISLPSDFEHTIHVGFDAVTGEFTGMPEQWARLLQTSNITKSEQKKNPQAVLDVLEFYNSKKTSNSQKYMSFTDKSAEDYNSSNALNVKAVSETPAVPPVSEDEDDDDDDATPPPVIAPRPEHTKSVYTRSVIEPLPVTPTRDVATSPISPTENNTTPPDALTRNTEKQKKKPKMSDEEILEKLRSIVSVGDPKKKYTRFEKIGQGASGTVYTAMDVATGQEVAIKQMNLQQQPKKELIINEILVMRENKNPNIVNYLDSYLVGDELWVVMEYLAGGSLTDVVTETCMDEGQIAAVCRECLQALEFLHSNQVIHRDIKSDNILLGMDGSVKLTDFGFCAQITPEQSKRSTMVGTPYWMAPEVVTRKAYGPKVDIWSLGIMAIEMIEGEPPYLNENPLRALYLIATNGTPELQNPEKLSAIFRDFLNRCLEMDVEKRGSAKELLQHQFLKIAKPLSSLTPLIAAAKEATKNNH
High affinity nerve growth factor receptor, sequence (P04629 whole entry): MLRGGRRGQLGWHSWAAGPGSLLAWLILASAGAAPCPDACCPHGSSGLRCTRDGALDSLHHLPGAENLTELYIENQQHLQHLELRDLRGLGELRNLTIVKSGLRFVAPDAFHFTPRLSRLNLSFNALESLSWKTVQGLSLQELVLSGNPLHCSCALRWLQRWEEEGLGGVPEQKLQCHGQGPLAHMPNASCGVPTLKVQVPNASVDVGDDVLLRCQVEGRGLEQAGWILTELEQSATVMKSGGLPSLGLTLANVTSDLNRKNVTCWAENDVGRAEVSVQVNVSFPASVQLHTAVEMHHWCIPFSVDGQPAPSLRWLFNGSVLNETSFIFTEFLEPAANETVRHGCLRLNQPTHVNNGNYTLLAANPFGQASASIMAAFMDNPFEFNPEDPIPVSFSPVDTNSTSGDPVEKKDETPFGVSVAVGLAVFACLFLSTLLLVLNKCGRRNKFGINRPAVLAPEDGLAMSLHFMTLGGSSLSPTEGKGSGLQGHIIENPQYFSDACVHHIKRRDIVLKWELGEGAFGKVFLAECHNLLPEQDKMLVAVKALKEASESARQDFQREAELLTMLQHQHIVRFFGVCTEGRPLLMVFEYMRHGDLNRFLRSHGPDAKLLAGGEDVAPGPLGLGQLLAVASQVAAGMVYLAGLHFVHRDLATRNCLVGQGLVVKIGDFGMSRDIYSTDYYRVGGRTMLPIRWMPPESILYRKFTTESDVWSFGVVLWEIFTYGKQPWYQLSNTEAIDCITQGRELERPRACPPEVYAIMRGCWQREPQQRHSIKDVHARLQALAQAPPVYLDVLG
Tyrosine-protein kinase CSK, sequence (P41240 whole entry): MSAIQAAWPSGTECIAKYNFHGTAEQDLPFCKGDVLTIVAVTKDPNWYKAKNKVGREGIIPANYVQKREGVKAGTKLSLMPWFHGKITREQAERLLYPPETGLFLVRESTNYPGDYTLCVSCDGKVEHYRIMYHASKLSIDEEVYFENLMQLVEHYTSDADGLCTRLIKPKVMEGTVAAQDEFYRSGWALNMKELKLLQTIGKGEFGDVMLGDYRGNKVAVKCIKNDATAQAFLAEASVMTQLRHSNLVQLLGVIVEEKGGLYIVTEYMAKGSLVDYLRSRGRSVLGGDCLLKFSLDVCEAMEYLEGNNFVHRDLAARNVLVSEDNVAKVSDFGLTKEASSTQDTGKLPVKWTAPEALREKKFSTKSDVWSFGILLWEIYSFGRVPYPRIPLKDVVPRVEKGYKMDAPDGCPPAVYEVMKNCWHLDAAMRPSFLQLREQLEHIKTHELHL
Serine/threonine-protein kinase pim-1, sequence (P11309 whole entry): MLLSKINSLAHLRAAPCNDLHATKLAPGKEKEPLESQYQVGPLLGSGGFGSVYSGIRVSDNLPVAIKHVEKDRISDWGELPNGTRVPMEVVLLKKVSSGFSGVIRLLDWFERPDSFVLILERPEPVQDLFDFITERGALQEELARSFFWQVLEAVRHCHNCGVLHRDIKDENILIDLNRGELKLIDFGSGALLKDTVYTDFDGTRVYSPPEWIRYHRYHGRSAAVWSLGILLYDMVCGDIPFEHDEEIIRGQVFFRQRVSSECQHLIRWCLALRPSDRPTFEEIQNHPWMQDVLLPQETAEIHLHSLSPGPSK
Tyrosine-protein kinase Lyn, sequence (P07948 whole entry): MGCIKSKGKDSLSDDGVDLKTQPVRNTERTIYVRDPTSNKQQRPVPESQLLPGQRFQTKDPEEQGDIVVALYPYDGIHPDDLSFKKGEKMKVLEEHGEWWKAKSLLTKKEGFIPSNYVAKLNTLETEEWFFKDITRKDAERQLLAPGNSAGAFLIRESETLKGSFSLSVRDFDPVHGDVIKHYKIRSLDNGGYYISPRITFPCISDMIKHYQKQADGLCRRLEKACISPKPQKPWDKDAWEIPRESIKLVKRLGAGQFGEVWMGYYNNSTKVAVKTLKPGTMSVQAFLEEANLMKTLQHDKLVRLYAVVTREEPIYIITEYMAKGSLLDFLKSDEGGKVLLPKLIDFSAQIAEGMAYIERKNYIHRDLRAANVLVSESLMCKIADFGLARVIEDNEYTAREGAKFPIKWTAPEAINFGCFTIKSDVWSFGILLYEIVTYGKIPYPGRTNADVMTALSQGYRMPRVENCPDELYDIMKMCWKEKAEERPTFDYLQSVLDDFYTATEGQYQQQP

C#Cc1cccc(Nc2ncnc3cc(OCCOC)c(OCCOC)cc23)c1 [ERLOTINIB]
Not Active: [1] | [2] | [3] | Ephrin type-A receptor 8 | [4] | [5] | [6] | [7] | [8] | [9] | [10] | [11]

Cc1ccc(NC(=O)c2ccc(CN3CCN(C)CC3)cc2)cc1Nc1nccc(-c2cccnc2)n1 [IMATINIB]
Not Active: [1] | [12] | [2] | [3] | [4] | [5] | [6] | [7] | [8] | [9] | [10] | [11]

O=c1ncn2nc(Sc3ccc(F)cc3F)ccc2c1-c1c(Cl)cccc1Cl [NEFLAMAPIMOD]
Not Active: [1] | [12] | [2] | [3] | [4] | [5] | [6] | [7] | [8] | [9] | [10] | [11]

CCOc1cc2ncc(C#N)c(Nc3ccc(F)c(Cl)c3)c2cc1NC(=O)/C=C/CN(C)C [PELITINIB]
Not Active: [4] | [5] | [7] | [8] | [10]

Oc1ccc(-c2nc(-c3ccc(F)cc3)c(-c3ccncc3)[nH]2)cc1 [SB-202190]
Not Active: [1] | [12] | [2] | [3] | Ephrin type-A receptor 8 | [4] | [5] | [6] | [7] | [8] | [9] | [10] | [11]

C[S+]([O-])c1ccc(-c2nc(-c3ccc(F)cc3)c(-c3ccncc3)[nH]2)cc1 (stereo unspecified) [SB-203580]
Not Active: [1] | [12] | [2] | [3] | Ephrin type-A receptor 8 | [4] | [5] | [6] | [7] | [8] | [9] | [10] | [11]

CC[C@H](CO)Nc1nc(NCc2ccccc2)c2ncn(C(C)C)c2n1 [SELICICLIB]
Not Active: [1] | [12] | [2] | [3] | Ephrin type-A receptor 8 | [4] | [5] | [6] | [7] | [8] | [9] | [10] | [11]

Oc1c2ccccc2c2c3c(cccc13)N=N2 [SP-600125]
Not Active: [1] | Ephrin type-A receptor 8 | [4] | [5] | [6] | [7] | [9] | [10] | [11]

COc1cc2c(N3CCN(C(=O)Nc4ccc(OC(C)C)cc4)CC3)ncnc2cc1OCCCN1CCCCC1 [TANDUTINIB]
Not Active: [1] | [12] | [2] | [3] | Ephrin type-A receptor 8 | [4] | [6] | [7] | [8] | [9] | [10] | [11]
